From the supplement of paper PMC4862054
“And” between values parts separate entries of the source, which are not always exact repeats. Equal entries are not always repeated.

System: DU-4475
Test: normalised viability (% of control), CellTiter-Blue; higher = more viable cells (about 100 = DMSO control)
Settings: 10 nM; incubation time: 72 h
Experimental: (§1)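 DSRT, CellTiter-Blue viability, 72 h incubation. Signal is normalised to DMSO and benzethonium chloride controls. Value is the normalised response at dose 3.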

Structure (SMILES)	normalised viability
CO[C@@]12[C@H](COC(N)=O)C3=C(C(=O)C(C)=C(N)C3=O)N1C[C@@H]1N[C@@H]12 [Mitomycin C]	103%
CC1(C)CCC(c2ccc(Cl)cc2)=C(CN2CCN(c3ccc(C(=O)NS(=O)(=O)c4ccc(N[C@H](CCN5CCOCC5)CSc5ccccc5)c(S(=O)(=O)C(F)(F)F)c4)cc3)CC2)C1 [Navitoclax]	86.9%
Cc1cn(-c2cc(NC(=O)c3ccc(C)c(Nc4nccc(-c5cccnc5)n4)c3)cc(C(F)(F)F)c2)cn1 [Nilotinib]	98.8% and 104%
C=CCN(/C=C1/C(=O)O[C@H](COC)[C@@]2(C)C1=C(O)C(=O)C1=C2[C@H](OC(C)=O)C[C@]2(C)C(=O)CC[C@@H]12)CC=C [PX-866]	97%
CC[C@H](CO)Nc1nc(NCc2ccccc2)c2ncn(C(C)C)c2n1 [Roscovitine]	104%
O=C(CCCCCCC(=O)Nc1ccccc1)NO [Vorinostat]	109%

System: HCC1599
Test: as above
Settings: 10 nM; incubation time: 72 h
Experimental: as §1

Structure (SMILES)	normalised viability [%]
CCNC(=O)c1noc(-c2cc(C(C)C)c(O)cc2O)c1-c1ccc(CN2CCOCC2)cc1 [NVP-AUY922]	112

Same assay, conditions: 100 nM; incubation time: 72 h

Structure (SMILES)	normalised viability
C=CCn1c(=O)c2cnc(Nc3ccc(N4CCN(C)CC4)cc3)nc2n1-c1cccc(C(C)(C)O)n1 [MK1775]	99.4%
CN(Cc1cnc2nc(N)nc(N)c2n1)c1ccc(C(=O)N[C@@H](CCC(=O)O)C(=O)O)cc1 [Methotrexate]	106%
COc1c2occc2cc2ccc(=O)oc12 [Methoxsalen]	104%
CO[C@@H]1[C@H](N(C)C(=O)c2ccccc2)C[C@H]2O[C@]1(C)n1c3ccccc3c3c4c(c5c6ccccc6n2c5c31)C(=O)NC4 [Midostaurin]	101%
CO[C@@]12[C@H](COC(N)=O)C3=C(C(=O)C(C)=C(N)C3=O)N1C[C@@H]1N[C@@H]12 [Mitomycin C]	108%
CC1(C)CCC(c2ccc(Cl)cc2)=C(CN2CCN(c3ccc(C(=O)NS(=O)(=O)c4ccc(N[C@H](CCN5CCOCC5)CSc5ccccc5)c(S(=O)(=O)C(F)(F)F)c4)cc3)CC2)C1 [Navitoclax]	93.5%
Cc1cn(-c2cc(NC(=O)c3ccc(C)c(Nc4nccc(-c5cccnc5)n4)c3)cc(C(F)(F)F)c2)cn1 [Nilotinib]	113% and 111%
C=CCN(/C=C1/C(=O)O[C@H](COC)[C@@]2(C)C1=C(O)C(=O)C1=C2[C@H](OC(C)=O)C[C@]2(C)C(=O)CC[C@@H]12)CC=C [PX-866]	112%
CC[C@H](CO)Nc1nc(NCc2ccccc2)c2ncn(C(C)C)c2n1 [Roscovitine]	116%
O=C(CCCCCCC(=O)Nc1ccccc1)NO [Vorinostat]	101% and 111%

System: MDA-MB-436
Test: as above
Settings: 10 nM; incubation time: 72 h
Experimental: as §1

Structure (SMILES)	normalised viability [%]
CCNC(=O)c1noc(-c2cc(C(C)C)c(O)cc2O)c1-c1ccc(CN2CCOCC2)cc1 [NVP-AUY922]	58.5

Same assay, conditions: 100 nM; incubation time: 72 h

Structure (SMILES)	normalised viability
C=CCn1c(=O)c2cnc(Nc3ccc(N4CCN(C)CC4)cc3)nc2n1-c1cccc(C(C)(C)O)n1 [MK1775]	86.3%
CN(Cc1cnc2nc(N)nc(N)c2n1)c1ccc(C(=O)N[C@@H](CCC(=O)O)C(=O)O)cc1 [Methotrexate]	80.7%
COc1c2occc2cc2ccc(=O)oc12 [Methoxsalen]	103%
CO[C@@H]1[C@H](N(C)C(=O)c2ccccc2)C[C@H]2O[C@]1(C)n1c3ccccc3c3c4c(c5c6ccccc6n2c5c31)C(=O)NC4 [Midostaurin]	85.6%
CO[C@@]12[C@H](COC(N)=O)C3=C(C(=O)C(C)=C(N)C3=O)N1C[C@@H]1N[C@@H]12 [Mitomycin C]	96.5%
CC1(C)CCC(c2ccc(Cl)cc2)=C(CN2CCN(c3ccc(C(=O)NS(=O)(=O)c4ccc(N[C@H](CCN5CCOCC5)CSc5ccccc5)c(S(=O)(=O)C(F)(F)F)c4)cc3)CC2)C1 [Navitoclax]	89.2%
Cc1cn(-c2cc(NC(=O)c3ccc(C)c(Nc4nccc(-c5cccnc5)n4)c3)cc(C(F)(F)F)c2)cn1 [Nilotinib]	100% and 93.8%
C=CCN(/C=C1/C(=O)O[C@H](COC)[C@@]2(C)C1=C(O)C(=O)C1=C2[C@H](OC(C)=O)C[C@]2(C)C(=O)CC[C@@H]12)CC=C [PX-866]	102%
CC[C@H](CO)Nc1nc(NCc2ccccc2)c2ncn(C(C)C)c2n1 [Roscovitine]	96.5%
O=C(CCCCCCC(=O)Nc1ccccc1)NO [Vorinostat]	107% and 95.4%

System: CAL-120
Test: as above
Settings: 10 nM; incubation time: 72 h
Experimental: as §1

Structure (SMILES)	normalised viability [%]
CCNC(=O)c1noc(-c2cc(C(C)C)c(O)cc2O)c1-c1ccc(CN2CCOCC2)cc1 [NVP-AUY922]	46.6

Same assay, conditions: 100 nM; incubation time: 72 h

Structure (SMILES)	normalised viability
C=CCn1c(=O)c2cnc(Nc3ccc(N4CCN(C)CC4)cc3)nc2n1-c1cccc(C(C)(C)O)n1 [MK1775]	75.8%
CN(Cc1cnc2nc(N)nc(N)c2n1)c1ccc(C(=O)N[C@@H](CCC(=O)O)C(=O)O)cc1 [Methotrexate]	50.4%
COc1c2occc2cc2ccc(=O)oc12 [Methoxsalen]	106%
CO[C@@H]1[C@H](N(C)C(=O)c2ccccc2)C[C@H]2O[C@]1(C)n1c3ccccc3c3c4c(c5c6ccccc6n2c5c31)C(=O)NC4 [Midostaurin]	107%
CO[C@@]12[C@H](COC(N)=O)C3=C(C(=O)C(C)=C(N)C3=O)N1C[C@@H]1N[C@@H]12 [Mitomycin C]	93.8%
CC1(C)CCC(c2ccc(Cl)cc2)=C(CN2CCN(c3ccc(C(=O)NS(=O)(=O)c4ccc(N[C@H](CCN5CCOCC5)CSc5ccccc5)c(S(=O)(=O)C(F)(F)F)c4)cc3)CC2)C1 [Navitoclax]	61.3%
Cc1cn(-c2cc(NC(=O)c3ccc(C)c(Nc4nccc(-c5cccnc5)n4)c3)cc(C(F)(F)F)c2)cn1 [Nilotinib]	80.1% and 86.2%
C=CCN(/C=C1/C(=O)O[C@H](COC)[C@@]2(C)C1=C(O)C(=O)C1=C2[C@H](OC(C)=O)C[C@]2(C)C(=O)CC[C@@H]12)CC=C [PX-866]	108%
CC[C@H](CO)Nc1nc(NCc2ccccc2)c2ncn(C(C)C)c2n1 [Roscovitine]	82.7%
O=C(CCCCCCC(=O)Nc1ccccc1)NO [Vorinostat]	79.2% and 93.3%

System: MDA-MB-231
Test: as above
Settings: 10 nM; incubation time: 72 h
Experimental: as §1

Structure (SMILES)	normalised viability [%]
CCNC(=O)c1noc(-c2cc(C(C)C)c(O)cc2O)c1-c1ccc(CN2CCOCC2)cc1 [NVP-AUY922]	56.5

Same assay, conditions: 100 nM; incubation time: 72 h

Structure (SMILES)	normalised viability
C=CCn1c(=O)c2cnc(Nc3ccc(N4CCN(C)CC4)cc3)nc2n1-c1cccc(C(C)(C)O)n1 [MK1775]	88.1%
CN(Cc1cnc2nc(N)nc(N)c2n1)c1ccc(C(=O)N[C@@H](CCC(=O)O)C(=O)O)cc1 [Methotrexate]	85.9%
COc1c2occc2cc2ccc(=O)oc12 [Methoxsalen]	100%
CO[C@@H]1[C@H](N(C)C(=O)c2ccccc2)C[C@H]2O[C@]1(C)n1c3ccccc3c3c4c(c5c6ccccc6n2c5c31)C(=O)NC4 [Midostaurin]	103%
CO[C@@]12[C@H](COC(N)=O)C3=C(C(=O)C(C)=C(N)C3=O)N1C[C@@H]1N[C@@H]12 [Mitomycin C]	107%
CC1(C)CCC(c2ccc(Cl)cc2)=C(CN2CCN(c3ccc(C(=O)NS(=O)(=O)c4ccc(N[C@H](CCN5CCOCC5)CSc5ccccc5)c(S(=O)(=O)C(F)(F)F)c4)cc3)CC2)C1 [Navitoclax]	71.9%
Cc1cn(-c2cc(NC(=O)c3ccc(C)c(Nc4nccc(-c5cccnc5)n4)c3)cc(C(F)(F)F)c2)cn1 [Nilotinib]	80.4% and 89.5%
C=CCN(/C=C1/C(=O)O[C@H](COC)[C@@]2(C)C1=C(O)C(=O)C1=C2[C@H](OC(C)=O)C[C@]2(C)C(=O)CC[C@@H]12)CC=C [PX-866]	97.8%
CC[C@H](CO)Nc1nc(NCc2ccccc2)c2ncn(C(C)C)c2n1 [Roscovitine]	88.5%
O=C(CCCCCCC(=O)Nc1ccccc1)NO [Vorinostat]	97.9% and 86.1%

System: SK-BR-3
Test: as above
Settings: 10 nM; incubation time: 72 h
Experimental: as §1

Structure (SMILES)	normalised viability [%]
CCNC(=O)c1noc(-c2cc(C(C)C)c(O)cc2O)c1-c1ccc(CN2CCOCC2)cc1 [NVP-AUY922]	34.9

Same assay, conditions: 100 nM; incubation time: 72 h

Structure (SMILES)	normalised viability [%]
C=CCn1c(=O)c2cnc(Nc3ccc(N4CCN(C)CC4)cc3)nc2n1-c1cccc(C(C)(C)O)n1 [MK1775]	62.1
